The results in this text go back to ChEMBL document CHEMBL3507680, “University of Dundee, Gates Library screen for HepG2 cell viability”.

The nature of this data set: Human HepG2 cell viability assay in 384 well format. Type of data set: toxicity, cell-based. Further details: dose 125 nL, time 70.5 hour; cytotoxicity at 70.5 h: concentration not given beside the values. To be noted: HepG2 cells, read-out: Inhibition.
For `CN1[C@@H](C(=O)NCC2CC2)C[C@@H]2CN(c3ncccn3)C[C@@H]21`, the cytotoxicity at 70.5 h was -3.13%.

For `Cc1nnc([C@H]2CC[C@@H]3[C@@H](CCN3CC3CCOCC3)O2)o1`, the cytotoxicity at 70.5 h was -2.48%.

With `O=C(c1ccsc1)N1C[C@H](N2CCOCC2)[C@@H]2OCCC[C@@H]21`, the cytotoxicity at 70.5 h is -1.61%.

In the case of `Cc1nnc([C@@H]2CC[C@@H]3[C@@H](CCN3C3CCOCC3)O2)o1`, the cytotoxicity at 70.5 h is -3.43%.

With `O=C(C1CCOCC1)N1CC[C@@H]2[C@H]1CCC(=O)N2c1ccccc1`, the cytotoxicity at 70.5 h amounted to 13.7%.

Take `CC(=O)N1CCO[C@@H]2CN(C(=O)c3ccccc3)CC[C@@H]2C1`: the cytotoxicity at 70.5 h came to 13.4%.

Regarding `O=c1cc(Cn2cncn2)nc2n1CCCN(CC1CCOCC1)C2`, the cytotoxicity at 70.5 h was -3.57%.

Turning to `CN(C)S(=O)(=O)N1CCC2(CC1)CC(OCC1CC1)CO2` (stereo not given), the cytotoxicity at 70.5 h is -4.38%.

`CN(C)Cc1cc(=O)n2c(n1)CN(CC1CCOCC1)CCC2`: the cytotoxicity at 70.5 h was -10.5%.

With `Fc1cccc(N2CCCC3(C2)CN(c2cnccn2)CCO3)c1` (stereo not given), the cytotoxicity at 70.5 h is -5.22%.

`Cc1ccc(CC(=O)N2CCCn3nnc(Cn4cccn4)c3C2)cc1`: the cytotoxicity at 70.5 h is -9.04%.

`O=S(=O)(C1CC1)N1CCOC2(COCCN(c3ncccn3)C2)C1` (stereo not given): the cytotoxicity at 70.5 h is -9.98%.

Regarding `O=C(c1ccncc1)N1CCCn2nnc(Cn3cccn3)c2C1`, the cytotoxicity at 70.5 h is -8.56%.

Take `CCOCC1CN(Cc2ccoc2)Cc2cn(CC3CC3)nc21` (stereo not given): the cytotoxicity at 70.5 h was -19.8%.

Take `O=c1cc(Cn2ccnc2)nc2n1CCCN(CC1CCOCC1)C2`: the cytotoxicity at 70.5 h was -19.5%.

For the compound `O=c1cc(CN2CCCC2)nc2n1CCCN(CC1CCOCC1)C2`, the cytotoxicity at 70.5 h was -13.6%.

In the case of `O=C(CO)N1CCCn2nnc(Cn3cccn3)c2C1`, the cytotoxicity at 70.5 h came out at 11.5%.

On to `CN(C)CCN1C[C@@H]2OCCN(Cc3cnn(C)c3)[C@@H]2C1`, for which the cytotoxicity at 70.5 h was -8.58%.

With `COCCN1Cc2ccnn2CC(COCc2cccnc2)C1` (stereo not given), the cytotoxicity at 70.5 h was -5.12%.

Consider `CNC(=O)c1cc2c(nc1NCC(C)C)CCN(S(C)(=O)=O)CC2`, for which the cytotoxicity at 70.5 h was -5.11%.

As to `Cc1ccc(CN2Cc3ccnn3CC(COCc3cccnc3)C2)o1` (stereo not given), the cytotoxicity at 70.5 h is -5.79%.

Regarding `CCS(=O)(=O)N1CCc2cc(C(=O)NC)c(NCC(C)C)nc2CC1`, the cytotoxicity at 70.5 h is -4.65%.

For `CNC(=O)c1cc2c(nc1NCC(C)C)CCN(S(=O)(=O)N(C)C)CC2`, the cytotoxicity at 70.5 h is -5.52%.

For `O=C(c1n[nH]c2c1CCN(Cc1nccs1)C2)N1CCOCC1`, the cytotoxicity at 70.5 h stood at 4.7%.

In the case of `Cc1cnc(N2Cc3nccn3CC(Cn3nc(C)nc3C)C2)nc1` (stereo not given), the cytotoxicity at 70.5 h stood at 0.499%.

As for `Cn1cc(CN2CCO[C@H]3CN(Cc4ccsc4)C[C@H]32)cn1`, the cytotoxicity at 70.5 h is -14%.

With `Cn1cc(CN2C[C@@H]3OCCN(CC4CCCC4)[C@@H]3C2)cn1`, the cytotoxicity at 70.5 h is -7.97%.

As to `CS(=O)(=O)N1CCCC12CCCN(C(=O)c1ccno1)C2` (stereo not given), the cytotoxicity at 70.5 h is -9.08%.

As for `O=C(CC1CC1)N1CCC2(CC(=O)N(c3cccc(F)c3)C2)C1` (stereo not given), the cytotoxicity at 70.5 h is -6.99%.

In the case of `O=C(Cn1nc(Br)nc1Br)N1CCCC1`, the cytotoxicity at 70.5 h is -0.289%.

On to `Cn1c(N)c2c(=O)n(C)c(-c3ccccc3)cc2c(C#N)c1=O`, for which the cytotoxicity at 70.5 h is -10.5%.

Turning to `Cn1c(N)c2c(=O)n(C)c(-c3ccc(Cl)cc3)cc2c(C#N)c1=O`, the cytotoxicity at 70.5 h is -8.81%.

For `COc1cc2nc(C)n(CC(=O)O)c(=O)c2cc1OC`, the cytotoxicity at 70.5 h is -8.36%.

Turning to `O=C(Cn1ccc2ccc(Br)cc21)NC[C@@H]1CCCN2CCCC[C@H]12`, the cytotoxicity at 70.5 h was determined as 41.4%.

For the compound `COc1cccc2c1ccn2CCC(=O)NCCCC(=O)O`, the cytotoxicity at 70.5 h was -3.23%.

Regarding `COC(=O)c1ccc(C2CC(=O)Oc3cc(C)[nH]c(=O)c32)cc1` (stereo not given), the cytotoxicity at 70.5 h was 4.58%.

Turning to `O=C(NCCCN1CCOCC1)c1cc(-c2ccc3c(c2)CCO3)n[nH]1`, the cytotoxicity at 70.5 h was -0.337%.

Regarding `CC(C)S(=O)(=O)c1nnc(CCNC(=O)OC(C)(C)C)o1`, the cytotoxicity at 70.5 h amounted to 29.5%.

On to `CCC(C)[C@H](NC(=O)c1cc(Br)ccc1-n1cnnn1)C(=O)OC` (stereo not given in full), for which the cytotoxicity at 70.5 h was 42%.

`O=C(NCC1CC1)c1nc(COc2ccc3c(c2)OCO3)no1`: the cytotoxicity at 70.5 h was 0.603%.

Turning to `O=C(NCCc1c[nH]cn1)c1ccc2c(c1)C(=O)N(C1CC1)C2=O`, the cytotoxicity at 70.5 h is 3.29%.

For the compound `O=C1N(c2ccc(F)cc2)Cc2nc(=O)n(Cc3cccc(Cl)c3)n21`, the cytotoxicity at 70.5 h is -0.858%.

With `O=C(COc1coc(CN2CCCCC2)cc1=O)Nc1ccccc1Cl`, the cytotoxicity at 70.5 h is -9.78%.

In the case of `CC1=Nc2c(c(=O)[nH]n2C(C)C)C(c2ccccc2)S1` (stereo not given), the cytotoxicity at 70.5 h is -3.86%.

On to `CC1=Nc2c(c(=O)[nH]n2C(C)C)C(c2cccs2)S1` (stereo not given), for which the cytotoxicity at 70.5 h is -8.68%.

In the case of `COc1ccc2nnc(CCCC(=O)NCCC3=CCCCC3)n2n1`, the cytotoxicity at 70.5 h is -4.24%.

As to `O=c1cc2c(nn1CN1CCN(c3cccc(Cl)c3)CC1)CCC2`, the cytotoxicity at 70.5 h was -6.87%.

As to `CC1=Nc2c(c(=O)[nH]n2C2CCOCC2)C(c2cccc(Br)c2)S1` (stereo not given), the cytotoxicity at 70.5 h was found to be 4.78%.

On to `COc1ccc2nnc(CCCC(=O)NCc3cccn3C)n2n1`, for which the cytotoxicity at 70.5 h came out at 6.5%.

For the compound `O=C1CSC(c2ccsc2)c2c(n(C3CCOCC3)[nH]c2=O)N1` (stereo not given), the cytotoxicity at 70.5 h came to 27.6%.

Consider `CNC(=O)c1cccnc1Oc1ccccc1`, for which the cytotoxicity at 70.5 h was -5.8%.

With `CCOC(=O)CN1CCC2(CC1)CC(=O)c1ccc(OC)cc1O2`, the cytotoxicity at 70.5 h came to 2.89%.

For `CCc1ccc(NC(=O)C2OC(c3cccs3)=NN2C(C)=O)cc1` (stereo not given), the cytotoxicity at 70.5 h was determined as 40.2%.

For the compound `O=C(Cc1c(F)cccc1F)N1CCN(CC(=O)N2CCCC2)CC1`, the cytotoxicity at 70.5 h was -5.05%.

In the case of `Cc1n[nH]c2c1C(c1ccsc1)SCC(=O)N2` (stereo not given), the cytotoxicity at 70.5 h was 8.67%.

As for `COc1ccc(C(=O)N2CCCC2c2ccco2)cc1OC` (stereo not given), the cytotoxicity at 70.5 h is -12.1%.

As for `CCOc1nc2cccnc2n(CC(=O)NCCOC)c1=O`, the cytotoxicity at 70.5 h is -14.5%.

For `CCc1ccc(NC(=O)c2cnc(N3CCN(C)CC3)nc2C)cc1`, the cytotoxicity at 70.5 h was found to be 36.8%.

As to `COc1ccc(OC)c(NC(=O)c2nc3ccccc3n(C)c2=O)c1`, the cytotoxicity at 70.5 h is -7.65%.

Consider `COc1cccc(CN2CCCCCC2c2cccc(C)c2)c1O` (stereo not given), for which the cytotoxicity at 70.5 h was 6.46%.

Turning to `COC(=O)c1cccc(C(=O)N2CCN(c3ccccc3F)CC2)n1`, the cytotoxicity at 70.5 h was found to be 28.8%.

Consider `O=C(Cn1ccc2sccc2c1=O)NCc1ccc2c(c1)OCO2`, for which the cytotoxicity at 70.5 h was -6.54%.

As to `CCCS(=O)(=O)Nc1ccc2c(c1)OCC(C)(C)C(=O)N2C`, the cytotoxicity at 70.5 h was 7.24%.

`COc1cccc(CNc2c(C)cnc3c2c(=O)n(C)c(=O)n3C)c1`: the cytotoxicity at 70.5 h worked out at 35.6%.

`Cc1cnc2c(c1NCc1ccncc1)c(=O)n(C)c(=O)n2C`: the cytotoxicity at 70.5 h was -2.95%.

Regarding `CCc1cnc2c(c1Nc1ccc(OC)cc1)c(=O)n(C)c(=O)n2C`, the cytotoxicity at 70.5 h was 21.4%.

In the case of `CCc1cnc2c(c1NCc1cccc(OC)c1)c(=O)n(C)c(=O)n2C`, the cytotoxicity at 70.5 h came out at 33.7%.

Turning to `COCCNC(=O)Cn1nc(C(C)C)c2cnn(C(C)(C)C)c2c1=O`, the cytotoxicity at 70.5 h is -3.75%.

In the case of `CCCC(=O)Nc1sc(C(=O)OCC)c(C)c1C#N`, the cytotoxicity at 70.5 h is -2.39%.

Take `CCCc1cc(=O)n(CC(N)=O)c(-n2nc(C)cc2C)n1`: the cytotoxicity at 70.5 h is -4.18%.

`CC1CCN(S(=O)(=O)c2cccn(CC(=O)NC3CCCC3)c2=O)CC1`: the cytotoxicity at 70.5 h is -3.39%.

Take `COc1ccc(Br)c(C(=O)NCC2CCN(S(=O)(=O)C3CC3)CC2)c1`: the cytotoxicity at 70.5 h was found to be 16.8%.

On to `CCOc1ccc(NC(=O)CN2CCN(c3nccn3C)CC2)cc1`, for which the cytotoxicity at 70.5 h is -2.94%.

`COc1ccc(C(=O)NCC(c2cccn2C)N2CCCC2)c(OC)c1` (stereo not given): the cytotoxicity at 70.5 h worked out at 14.2%.

Turning to `Cn1cccc1C(CNC(=O)c1ccc(F)cc1F)N1CCCCCC1` (stereo not given), the cytotoxicity at 70.5 h stood at 34.1%.

Take `CN(C)C1CCN(C(=O)c2cc3c(s2)CCN3C(=O)C2CC2)CC1`: the cytotoxicity at 70.5 h was -2.71%.

With `O=C(NCc1cccs1)[C@]12COC[C@H]1CN(c1ncccn1)C2`, the cytotoxicity at 70.5 h was -3.55%.

Turning to `CN(C)C[C@H]1OC[C@@H]2CCN(C(=O)Cc3cccs3)C[C@@H]21`, the cytotoxicity at 70.5 h was -9.21%.

As to `CN(C)S(=O)(=O)N1C[C@H]2CCC[C@@]2(COc2cccnc2)C1`, the cytotoxicity at 70.5 h is -5.8%.

With `Cc1nc(C)n(CC2CN(Cc3cccs3)Cc3nccn3C2)n1` (stereo not given), the cytotoxicity at 70.5 h is -0.931%.

As to `CN(C)C(=O)c1n[nH]c2c1CN(Cc1nccs1)CC2`, the cytotoxicity at 70.5 h is -1.73%.

As to `CNC(=O)c1cc2c(nc1NCC(C)C)CCN(c1ncccn1)CC2`, the cytotoxicity at 70.5 h was 4.12%.

As to `O=S(=O)(C1CC1)N1CC[C@H]2OCC[C@@]2(COc2ncccc2F)C1`, the cytotoxicity at 70.5 h is -12.6%.

`Cc1ccc(CN2CCc3c(CN4CCCC4)n[nH]c3C2)s1`: the cytotoxicity at 70.5 h is -4.44%.

For the compound `COC[C@]12COC[C@H]1CN(Cc1ccc3ccccc3n1)C2`, the cytotoxicity at 70.5 h was -3.53%.

Take `Cc1ccc(N2C[C@H]3CCC[C@@]3(COc3cccnc3)C2)nn1`: the cytotoxicity at 70.5 h was -8.26%.

Regarding `O=C(NCc1ccccn1)[C@H]1COC[C@H]2CN(c3ncccn3)C[C@H]21`, the cytotoxicity at 70.5 h is -4.8%.

As for `Cc1nc(C)n(CC2CN(Cc3ccncc3)Cc3nccn3C2)n1` (stereo not given), the cytotoxicity at 70.5 h was -4.22%.

For `Cc1ncsc1CN1C[C@@H](OCc2ccncc2)[C@H]2OCCC[C@H]21`, the cytotoxicity at 70.5 h was 3.55%.

Regarding `COCCN1CCc2cc(C(=O)NC(C)C)c(NCC(C)C)nc2CC1`, the cytotoxicity at 70.5 h was -16.4%.

Regarding `CCO[C@@H]1CN(Cc2scnc2C)[C@@H]2CCCO[C@@H]21`, the cytotoxicity at 70.5 h was -10.5%.

Turning to `CN1CCN([C@@H]2CCN(CC3CCOC3)[C@H]2Cc2cnn(C)c2)CC1` (stereo not given in full), the cytotoxicity at 70.5 h is -13%.

Turning to `CN(C)C[C@]12COC[C@H]1CN(Cc1ccc3ccccc3n1)C2`, the cytotoxicity at 70.5 h was -11.7%.

On to `CN1CCN([C@@H]2CCN(C3CCOC3)[C@H]2Cc2cnn(C)c2)CC1` (stereo not given in full), for which the cytotoxicity at 70.5 h was -12.4%.

Take `Cc1ncsc1CN1C[C@@H](OCc2ccccn2)[C@H]2OCCC[C@H]21`: the cytotoxicity at 70.5 h came out at 7.35%.
